Experiment [1] has as its target T1, G-protein coupled receptor 35 (Homo sapiens, UniProt Q9HC97). Put plainly: SAR analysis of Agonists of the GPR35 Receptor using an Image-Based Assay - Set 3. [Related pubchem assays (depositor defined):AID1961, AID1965]. It counts as functional.
Experiment [2] has as its target T2, Cannabinoid receptor 1 (Homo sapiens, UniProt P21554). Nature of the experiment: SAR analysis of antagonists of the Cannabinoid Receptor 1 using an Image-Based Assay - Set 3. [Related pubchem assays (depositor defined):AID1961, AID1965]. Type of experiment: functional.
In experiment [3] the target is T3, Cannabinoid receptor 2 (Homo sapiens, UniProt P34972). Put plainly: SAR analysis of agonists of the Cannabinoid Receptor 2 using an Image-Based Assay - Set 2. [Related pubchem assays (depositor defined):AID1961, AID1965]. Type of experiment: functional.
Experiment [4] addresses T3, Cannabinoid receptor 2. Nature of the experiment: SAR analysis of antagonists of the Cannabinoid Receptor 2 using an Image-Based Assay - Set 2. [Related pubchem assays (depositor defined):AID1961, AID1965]. It counts as functional.
The target of experiment [5] is T2, Cannabinoid receptor 1. Put plainly: SAR analysis of agonists of the Cannabinoid Receptor 1 using an Image-Based Assay - Set 3. [Related pubchem assays (depositor defined):AID1961, AID1965]. It counts as functional.
Experiment [6] concerns the target T1, G-protein coupled receptor 35. Nature of the experiment: SAR analysis of Antagonists of the GPR35 Receptor using an Image-Based Assay - Set 4. [Related pubchem assays (depositor defined):[…]]. Type of experiment: functional.
Experiment [7] deals with G-protein coupled receptor 55 (Homo sapiens, UniProt Q9Y2T6). Nature of the experiment: SAR analysis of selective Agonists of GPR55 using an Image-Based Assay - Set 2. [Related pubchem assays (depositor defined):AID1961, AID1965]. Type of experiment: functional.
In experiment [8] the target is Dual specificity protein phosphatase 3 (Homo sapiens, UniProt P51452). Nature of the experiment: SAR VHR1 Fluorescent Assay for In Vitro dose response studies Set 2. [Related pubchem assays (depositor defined):AID1654, AID1661, AID1878]. It counts as functional.
The target in experiment [9] is Alkaline phosphatase, placental type (Homo sapiens, UniProt P05187). Put plainly: PLAP enzyme inhibitors, confirmation, biochemical, luminescence (AID 1512). It counts as functional.
The target of experiment [10] is T4, Tyrosine-protein phosphatase non-receptor type 7 (Homo sapiens, UniProt P35236).
T4 sequence (P35236 whole entry): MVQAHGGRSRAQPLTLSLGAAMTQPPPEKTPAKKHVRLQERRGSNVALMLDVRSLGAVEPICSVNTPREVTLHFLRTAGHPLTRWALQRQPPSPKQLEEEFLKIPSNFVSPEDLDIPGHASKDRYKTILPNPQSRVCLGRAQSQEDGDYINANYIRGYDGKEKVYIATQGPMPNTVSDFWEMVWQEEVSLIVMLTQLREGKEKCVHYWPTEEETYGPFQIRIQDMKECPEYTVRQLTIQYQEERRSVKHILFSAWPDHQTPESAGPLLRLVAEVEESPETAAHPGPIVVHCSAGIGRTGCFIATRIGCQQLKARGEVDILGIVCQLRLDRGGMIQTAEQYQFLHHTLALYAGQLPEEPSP
Nature of the experiment: SAR analysis of chemical inhibitors of HePTP using a Fluorescent assay - Set 2. [Related pubchem assays (depositor defined):AID1059, AID1077, AID1661, AID2085, AID521]. It counts as functional.

Experiment [11] concerns the target Sphingosine 1-phosphate receptor 4 (Homo sapiens, UniProt O95977). Put plainly: Late-stage fluorescence dose response cell-based assay to identify agonists of the Sphingosine 1-Phosphate Receptor 4 (S1P4): purchased compounds EC50. [Related pubchem assays (depositor defined):AID1509, AID1523, AID1563, AID1686, AID1701, AID1801]. Type of experiment: functional.

A short description of experiment [12]: Luminescence Cell-Based Dose Confirmation HTS to Identify Inhibitors of 5'UTR Stem-Loop Driven Alpha-Synuclein mRNA Translation in H4 Neuroglioblastoma Cells. [Related pubchem assays: 1827 (Project Summary), 1813 (Primary HTS)]. It counts as functional.
Experiment [13] in a line: Luminescence Cell-Based Dose HTS Response to Identify Inhibitors of 5'UTR Stem-Loop Driven Prion Protein mRNA Translation in H4-C Neuroglioblastoma Cells. [Related pubchem assays (depositor defined):AID1814, AID1827]. Type of experiment: functional.
The nature of experiment [14]: Luminescence Cell-Based Dose Response HTS to Identify Activators of 5'UTR Stem-Loop Driven Prion Protein mRNA Translation in H4-C Neuroglioblastoma Cells. [Related pubchem assays: 1829 (Project Summary), 1814 (Primary HTS)]. It counts as functional.
Experiment [15] can be described thus: Luminescence Cell-Based Dose Retest to Confirm Activators of 5'UTR Stem-Loop Driven Alpha-Synuclein mRNA Translation in H4 Neuroglioblastoma Cells. [Related pubchem assays (depositor defined):AID1813, AID1829]. It counts as functional.
The nature of experiment [16]: Luminescence Cell-Based Dose Response HTS to Identify Inhibitors of Luciferase Translation or Activity in H4-C Neuroglioblastoma Cells. [Related pubchem assays: 1813 (Primary HTS), 1827 (Project Summary)]. It counts as functional.
Experiment [17] in a line: Luminescence Cell-Based Dose Response HTS to Identify Activators of Luciferase Translation or Activity in H4-C Neuroglioblastoma Cells. [Related pubchem assays: 1829 (Project Summary), 1814 (Primary HTS)]. Type of experiment: functional.
Experiment [18] concerns INS1. Nature of the experiment: beta cell apoptosis inhibitors, cytokine rescue, dose response, luminescence, retest (AID 449756).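 Also: cell death triggered by IL-1 beta plus TNF-alpha plus IFN-gamma mixture; protective hits raise ATP signal compared with cytokine alone wells.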 Type of experiment: functional, cell-based. The settings on record: Rattus norvegicus.
Experiment [19] can be described thus: NIH-3T3 fibroblast cytotoxicity, dose response, cytotoxicity control, cell-based, fluorescence, Alamar Blue, secondary assay (AID 2327).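 Also: NIH-3T3 mouse fibroblasts cultured with fluconazole at 8 µg/mL.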 Type of experiment: functional.
Experiment [20] relates to BJ. Put plainly: cytotoxicity toward BJ-TERT fibroblasts, dose response, cell-based, RAS-independent, luminescence (AID 1933). It counts as functional. As to conditions: Homo sapiens.
Experiment [21] concerns BJ. Nature of the experiment: cytotoxicity toward BJ-TERT-LT-ST fibroblasts, dose response, cell-based, RAS-independent, luminescence (AID 1935).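 Also: BJ fibroblasts immortalized with TERT plus LT and ST oncogenes.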 Type of experiment: functional. The settings on record: Homo sapiens.
Experiment [22] can be described thus: C. albicans growth with fluconazole, confirmation, fluorescence, retest (AID 2467). Type of experiment: functional, cell-based.
Experiment [23] in a line: cytotoxicity toward DRD oncogenic fibroblasts, dose response, cell-based, non-viral oncogenic, luminescence (AID 1934). Type of experiment: functional. As to conditions: Homo sapiens.
Experiment [24] is described as follows: inhibitors of SNCA 5'UTR-driven reporter translation, confirmation, H4 neuroglioma cells, luminescence (AID 1988). Type of experiment: functional, cell-based.
Experiment [25] deals with BJ. Nature of the experiment: cells. Type of experiment: functional, cell-based. As to conditions: Homo sapiens.
Experiment [26] in a line: inhibitors of firefly luciferase expression or activity, dose response, H4 neuroglioma cells, luminescence (AID 1990). It counts as functional, cell-based.
In experiment [27] the target is CAAX prenyl protease 2 (Saccharomyces cerevisiae S288c, UniProt Q03530). It counts as biochemical.
Experiment [28] in a line: Luminescence Cell-Based Dose Response HTS to Identify Inhibitors of 5'UTR Stem-Loop Driven Prion Protein mRNA Translation in H4 Neuroglioblastoma Cells. [Related pubchem assays: 1827 (Project Summary), 1813 (Primary HTS)]. It counts as functional.
Experiment [29] is described as follows: A small molecule screen for inhibitors of the PhoP region in Salmonella typhi (5) using purified and synthesized compounds. [Related pubchem assays (depositor defined):AID1850, AID1864, AID1985, AID2252, AID2384, AID2612, AID2811, AID434995]. Type of experiment: functional.
For experiment [30], the target named is Intestinal-type alkaline phosphatase (Homo sapiens, UniProt P09923). Put plainly: human intestinal alkaline phosphatase activators, dose response, biochemical, luminescence, uHTS hits (AID 463120). Type of experiment: functional.
Experiment [31] concerns Salmon testes DNA. Nature of the experiment: DNA intercalators displacing acridine orange, dose response, artefact control for KSHV LANA DNA-binding inhibitor project, biochemical, fluorescence polarization, cherry-picked samples, set 2 (AID 504727). Further details: species or system Salmonidae.
For experiment [32], the target named is Keap1/Nrf2 (Homo sapiens, UniProt Q14145). Put plainly: Keap1-Nrf2 protein-protein interaction inhibitors, dose response, biochemical, fluorescence polarization, cherry-picked samples (AID 588683).
Experiment [33] addresses ORF 73 (Human herpesvirus 8, UniProt O40947). Put plainly: inhibitors of C-LANA binding to LBS DNA, dose response, biochemical, fluorescence polarization, cherry-picked samples (AID 504725).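 Also: fluorescence polarization of a labeled DNA duplex reporting LANA DNA binding; potency is for inhibitors that block LANA binding to the DNA.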 Further details: species or system Human gammaherpesvirus 8.
Experiment [34] addresses Troponin, cardiac muscle (Homo sapiens, UniProt P19429+P45379+P63316). Nature of the experiment: Fluorescence-based biochemical high throughput dose response assay for activators of the calcium sensitivity of cardiac Regulated Thin Filaments (RTF). [Related pubchem assays (depositor defined):AID493008, AID493018, AID504382, AID504383]. It counts as protein-complex assay.

Experiment [35] in a line: fluorescence interference artefacts, compound only, dose response, artefact control for cardiac thin filament activator project, biochemical, no RTF in test wells (AID 504697).
Experiment [36] concerns the target Genome polyprotein (dengue virus type 2, UniProt P29990). Put plainly: Dengue-2 NS5 methyltransferase inhibitors, primary screen, biochemical, confirmation dose response (AID 588689). Type of experiment: functional.
Experiment [37] concerns the target X-box-binding protein 1 (Homo sapiens, UniProt P17861). Type of experiment: functional, Cricetulus griseus.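 Also: confirmatory dose-response counter-screen serving a CHOP assay.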
Experiment [38] addresses DNA damage-inducible transcript 3 protein (Mus musculus, UniProt P35639). Type of experiment: functional, Cricetulus griseus.

The source made the active and inactive calls. Bounds are passed on as bounds.

T1 sequence (Q9HC97 whole entry): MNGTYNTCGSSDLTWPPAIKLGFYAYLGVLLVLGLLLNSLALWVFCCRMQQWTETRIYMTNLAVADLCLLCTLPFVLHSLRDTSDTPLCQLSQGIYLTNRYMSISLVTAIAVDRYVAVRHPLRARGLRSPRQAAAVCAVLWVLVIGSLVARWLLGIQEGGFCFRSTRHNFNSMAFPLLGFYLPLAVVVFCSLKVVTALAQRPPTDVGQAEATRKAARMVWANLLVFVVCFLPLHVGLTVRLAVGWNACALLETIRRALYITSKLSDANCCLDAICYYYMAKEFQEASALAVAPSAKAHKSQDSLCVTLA
T2 sequence (P21554 whole entry): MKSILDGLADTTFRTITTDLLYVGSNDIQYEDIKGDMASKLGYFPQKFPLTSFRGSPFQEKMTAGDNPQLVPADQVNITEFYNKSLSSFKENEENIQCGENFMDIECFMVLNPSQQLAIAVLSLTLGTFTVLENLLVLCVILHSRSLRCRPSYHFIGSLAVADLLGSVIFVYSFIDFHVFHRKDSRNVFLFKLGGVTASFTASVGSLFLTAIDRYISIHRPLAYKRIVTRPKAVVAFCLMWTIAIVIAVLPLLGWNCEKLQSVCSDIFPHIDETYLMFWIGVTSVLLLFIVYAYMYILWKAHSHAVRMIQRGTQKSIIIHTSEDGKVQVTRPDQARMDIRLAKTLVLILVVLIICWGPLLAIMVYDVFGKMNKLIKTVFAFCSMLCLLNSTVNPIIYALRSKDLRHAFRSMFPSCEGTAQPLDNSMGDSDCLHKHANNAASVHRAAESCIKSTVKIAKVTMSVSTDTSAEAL
T3 sequence (P34972 whole entry): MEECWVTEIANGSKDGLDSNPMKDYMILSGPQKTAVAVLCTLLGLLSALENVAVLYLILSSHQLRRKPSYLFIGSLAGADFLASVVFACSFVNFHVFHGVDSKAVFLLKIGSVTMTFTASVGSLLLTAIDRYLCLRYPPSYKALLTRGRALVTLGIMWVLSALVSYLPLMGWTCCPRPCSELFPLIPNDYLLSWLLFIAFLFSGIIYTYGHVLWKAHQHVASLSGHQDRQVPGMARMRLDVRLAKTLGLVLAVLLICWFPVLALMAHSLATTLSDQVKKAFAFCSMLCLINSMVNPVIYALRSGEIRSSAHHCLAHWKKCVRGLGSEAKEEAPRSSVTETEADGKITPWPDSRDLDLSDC
Sequence of Genome polyprotein (P29990 2492-3391 limits assumed): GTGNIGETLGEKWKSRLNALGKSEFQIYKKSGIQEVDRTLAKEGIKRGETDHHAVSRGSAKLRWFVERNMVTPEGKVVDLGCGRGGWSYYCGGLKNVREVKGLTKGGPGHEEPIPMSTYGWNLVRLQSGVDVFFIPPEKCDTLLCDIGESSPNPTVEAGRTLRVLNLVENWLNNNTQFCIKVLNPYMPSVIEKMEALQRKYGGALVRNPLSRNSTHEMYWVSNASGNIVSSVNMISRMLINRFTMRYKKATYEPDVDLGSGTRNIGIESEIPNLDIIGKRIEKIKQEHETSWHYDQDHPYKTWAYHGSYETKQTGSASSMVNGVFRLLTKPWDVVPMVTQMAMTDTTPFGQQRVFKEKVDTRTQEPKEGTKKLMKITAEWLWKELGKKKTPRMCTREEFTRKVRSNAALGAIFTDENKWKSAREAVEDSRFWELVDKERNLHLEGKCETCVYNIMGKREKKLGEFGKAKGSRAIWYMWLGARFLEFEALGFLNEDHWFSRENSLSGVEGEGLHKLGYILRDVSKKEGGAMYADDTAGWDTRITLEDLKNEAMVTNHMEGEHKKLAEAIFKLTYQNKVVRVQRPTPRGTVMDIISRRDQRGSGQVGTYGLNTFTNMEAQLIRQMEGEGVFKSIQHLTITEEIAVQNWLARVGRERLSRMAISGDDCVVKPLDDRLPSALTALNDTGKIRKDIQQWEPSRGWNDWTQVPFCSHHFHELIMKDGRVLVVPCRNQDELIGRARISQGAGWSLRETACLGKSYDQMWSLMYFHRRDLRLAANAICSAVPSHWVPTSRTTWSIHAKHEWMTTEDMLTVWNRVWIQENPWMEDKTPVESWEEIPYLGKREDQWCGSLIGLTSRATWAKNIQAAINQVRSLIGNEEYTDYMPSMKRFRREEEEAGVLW
Sequence of DNA damage-inducible transcript 3 protein (P35639 whole entry): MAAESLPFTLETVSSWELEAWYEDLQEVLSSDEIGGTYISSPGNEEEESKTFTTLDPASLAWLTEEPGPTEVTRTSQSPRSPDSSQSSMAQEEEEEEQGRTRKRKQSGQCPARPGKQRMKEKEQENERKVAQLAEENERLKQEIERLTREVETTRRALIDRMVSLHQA
Sequence of ORF 73 (O40947 whole entry): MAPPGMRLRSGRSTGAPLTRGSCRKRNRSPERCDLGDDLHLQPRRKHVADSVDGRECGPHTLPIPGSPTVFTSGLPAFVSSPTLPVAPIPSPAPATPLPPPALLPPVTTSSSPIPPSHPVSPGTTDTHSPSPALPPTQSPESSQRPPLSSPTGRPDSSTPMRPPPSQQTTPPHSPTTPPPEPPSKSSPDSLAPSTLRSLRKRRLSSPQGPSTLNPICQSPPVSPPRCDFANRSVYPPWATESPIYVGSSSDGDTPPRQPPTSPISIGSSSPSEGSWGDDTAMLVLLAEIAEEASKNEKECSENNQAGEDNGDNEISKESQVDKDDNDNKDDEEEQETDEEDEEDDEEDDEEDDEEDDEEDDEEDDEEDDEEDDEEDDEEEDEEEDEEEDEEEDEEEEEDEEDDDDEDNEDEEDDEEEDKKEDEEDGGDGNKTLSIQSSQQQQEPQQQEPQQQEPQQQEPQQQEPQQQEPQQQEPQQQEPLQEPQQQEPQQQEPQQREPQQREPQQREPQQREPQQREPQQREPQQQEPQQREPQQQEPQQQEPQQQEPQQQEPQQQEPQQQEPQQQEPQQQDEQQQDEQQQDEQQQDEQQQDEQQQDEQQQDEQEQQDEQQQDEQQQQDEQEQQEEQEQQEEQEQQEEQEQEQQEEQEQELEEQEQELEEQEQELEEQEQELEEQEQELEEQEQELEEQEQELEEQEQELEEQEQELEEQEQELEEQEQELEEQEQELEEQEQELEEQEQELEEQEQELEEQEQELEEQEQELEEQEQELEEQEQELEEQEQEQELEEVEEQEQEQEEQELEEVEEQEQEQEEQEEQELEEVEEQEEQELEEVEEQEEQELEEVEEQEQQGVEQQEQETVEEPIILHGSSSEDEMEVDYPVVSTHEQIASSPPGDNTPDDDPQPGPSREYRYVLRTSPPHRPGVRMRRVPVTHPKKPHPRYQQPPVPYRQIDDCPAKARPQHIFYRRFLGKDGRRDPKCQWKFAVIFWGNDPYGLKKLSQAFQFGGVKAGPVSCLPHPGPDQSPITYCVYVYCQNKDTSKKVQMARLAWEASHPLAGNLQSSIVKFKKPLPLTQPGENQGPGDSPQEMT
Sequence of Alkaline phosphatase, placental type (P05187 whole entry): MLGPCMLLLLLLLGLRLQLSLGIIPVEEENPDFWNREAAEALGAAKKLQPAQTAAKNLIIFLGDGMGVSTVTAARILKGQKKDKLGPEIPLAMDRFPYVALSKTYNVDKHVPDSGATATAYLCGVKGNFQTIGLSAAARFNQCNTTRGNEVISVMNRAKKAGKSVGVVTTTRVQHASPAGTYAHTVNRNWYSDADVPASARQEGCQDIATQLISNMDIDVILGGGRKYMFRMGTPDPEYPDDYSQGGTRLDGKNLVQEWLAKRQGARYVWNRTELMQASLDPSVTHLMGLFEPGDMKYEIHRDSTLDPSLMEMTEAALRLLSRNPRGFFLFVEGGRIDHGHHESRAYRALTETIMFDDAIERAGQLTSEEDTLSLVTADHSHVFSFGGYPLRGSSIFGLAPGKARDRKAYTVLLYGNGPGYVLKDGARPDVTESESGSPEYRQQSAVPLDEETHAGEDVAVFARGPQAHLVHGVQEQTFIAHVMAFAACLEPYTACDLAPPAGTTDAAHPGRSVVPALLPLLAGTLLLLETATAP
Sequence of Intestinal-type alkaline phosphatase (P09923 whole entry): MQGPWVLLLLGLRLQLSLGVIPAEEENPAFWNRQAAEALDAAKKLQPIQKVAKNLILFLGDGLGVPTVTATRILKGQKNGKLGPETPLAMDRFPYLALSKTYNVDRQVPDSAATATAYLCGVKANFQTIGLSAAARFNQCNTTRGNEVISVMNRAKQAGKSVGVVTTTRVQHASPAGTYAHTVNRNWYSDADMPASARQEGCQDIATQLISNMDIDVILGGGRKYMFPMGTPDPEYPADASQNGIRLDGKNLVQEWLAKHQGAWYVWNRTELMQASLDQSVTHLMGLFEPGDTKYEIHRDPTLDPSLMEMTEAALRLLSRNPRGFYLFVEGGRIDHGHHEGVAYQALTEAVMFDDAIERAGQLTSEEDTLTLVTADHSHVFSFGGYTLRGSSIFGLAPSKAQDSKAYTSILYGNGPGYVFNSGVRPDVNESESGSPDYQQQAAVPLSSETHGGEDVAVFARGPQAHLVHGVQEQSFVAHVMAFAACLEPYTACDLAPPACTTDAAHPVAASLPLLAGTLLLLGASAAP
Sequence of Dual specificity protein phosphatase 3 (P51452 whole entry): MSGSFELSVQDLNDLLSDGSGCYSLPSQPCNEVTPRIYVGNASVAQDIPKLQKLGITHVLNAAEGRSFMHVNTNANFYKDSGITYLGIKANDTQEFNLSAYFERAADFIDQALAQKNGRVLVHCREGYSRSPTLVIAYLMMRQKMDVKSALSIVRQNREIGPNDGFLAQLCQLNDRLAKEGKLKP
Sequence of X-box-binding protein 1 (P17861 whole entry): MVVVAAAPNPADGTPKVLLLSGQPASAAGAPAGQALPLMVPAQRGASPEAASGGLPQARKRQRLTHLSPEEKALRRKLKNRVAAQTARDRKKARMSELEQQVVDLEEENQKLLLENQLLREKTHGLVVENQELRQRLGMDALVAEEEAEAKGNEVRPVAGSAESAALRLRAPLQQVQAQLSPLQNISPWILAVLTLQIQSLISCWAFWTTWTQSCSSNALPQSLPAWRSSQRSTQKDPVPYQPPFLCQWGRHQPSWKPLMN

On to `CCc1sc(C(=O)Nc2cc(S(=O)(=O)N3CCOCC3)ccc2OC)cc1C`, for which the EC50 in experiment [1], in experiment [3], in experiment [5] and in experiment [7] was > 32 µM (inactive) throughout. In addition, the IC50 in experiment [2], in experiment [4] and in experiment [6] was > 32 µM (inactive) each time.

For the compound `Cc1ccc(NC(S)=NNC(=O)c2c(Cl)c(C)nn2C)cc1`, the IC50 in [8], in experiment [9] and in [10] was > 100 µM (inactive) throughout.

As for `CCNC(=O)NC(=O)C(C)OC(=O)c1cc2c(C)nn(Cc3ccc(Cl)cc3)c2s1` (stereo not drawn), the EC50 in experiment [11] is > 50 µM (inactive).

In the case of `COc1ccc2c(c1)sc(N)[n+]2Cc1cc(C)cc2cccnc12`, the EC50 was 6.36 µM (active) in experiment [12]; 0.711 µM (active) in [13]; 0.711 µM (inconclusive) in experiment [14]; 6.36 µM (inconclusive) in experiment [15]; 10.3 µM (active) in [16]; 10.3 µM (inconclusive) in [17].

In the case of `Cc1ccc(-c2cc(-c3ccccc3)cc(-c3ccccc3)[n+]2-c2ccccc2)cc1.[O-][Cl+3]([O-])([O-])[O-]`, the AC50 is 1.89 µM (active) in experiment [18] and 29.1 µM (active) in experiment [27]. In addition, the EC50 in [19] is 43.8 µM (active); in experiment [20] it was 4.34 µM (active); in experiment [21], 4.96 µM (active); in [22], 0.378 µM (active); in experiment [23], 6.7 µM (active); in experiment [24], 10.7 µM (active). Besides, the EC50 in experiment [25] was 7.64 µM (active); in experiment [26], > 120 µM (not active); in experiment [28], > 120 µM (not active).

As for `COc1cccc(NC(=O)N2CCCN(Cc3ccccc3F)C2)c1`, the IC50 in experiment [29] is > 150 µM (active).

For `COc1cc(/C=N\NS(=O)(=O)c2ccccc2)cc(OC)c1OC`, in experiment [30], the EC50 was > 100 µM (inactive).

For `CN1CC=C2C(C#N)=C(N)C(C#N)(C#N)[C@H](c3ccoc3)[C@H]2C1`, the AC50 in experiment [31] was 79 µM (active); in experiment [32], 47.9 µM (active); in [33] it was 58.9 µM (active). Moreover, the EC50 in experiment [34] is 8.32 µM (active); in [35], > 7.94 µM (active).

Regarding `Nc1cccc2c1C(=O)N(C(=O)/C=C/c1cccc(F)c1)C2=O`, the IC50 in [36] was > 100 µM (active). The “Absolute IC50 (XBP1)” value in [37] was determined as 10 µM. Moreover, in [38], the “Absolute IC50 (CHOP)” value was less than 10 µM.
